Consider 40 compounds from US8916702B2 (priority 2012, dated 2014).

SMILES strings stand for the structures. Read-outs that look alike come from different tables or passages of the source.

The assay deals with HCV pseudoparticles (genotype 1a HCV E1 and E2 envelope, H77C isolate). As to the kind of experiment: microbe, parasite or virus in culture. It counts as cell-based.
Where [1] appears, read: Hepatitis C virus, Huh-7, 48 h, read-out: Activity (EC50 class), HCV pseudoparticle infection of Huh7 cells, luciferase 2 days after infection, EC50 expressed as class A/B.
Where [2] appears, read: Hepatitis C virus, Huh-7, 48 h, read-out: Activity (EC50 class), HCV pseudoparticles, Huh7 cells, luciferase 2 days after infection, average of duplicates.
[3] abbreviates: Hepatitis C virus, Huh-7, read-out: Activity (EC50 class), HCV pseudoparticles (genotype 1a, H77C) in Huh7 cells, EC50 expressed as class A/B.
The mark [4] stands for this setting: Hepatitis C virus, Huh-7, 48 h, HCV pseudoparticles (genotype 1a, H77C) in Huh7 cells, average of duplicate, luciferase 2 days after infection.
[5] abbreviates: Hepatitis C virus, Huh-7, 48 h, HCV pseudoparticle infection of Huh7 cells, luciferase 2 days after infection, average of duplicates.

A word on the EC50: it is the concentration at which the effect is half-maximal. For the compound `COC(=O)[C@H](CCNC(=O)C(=O)Nc1ccc(-c2ccccc2)c(OC)c1)NC(=O)c1ccc(Nc2nc(NC3(c4ccc(Cl)cc4)CC3)nc(OCC(F)(F)F)n2)cc1` [Compound 1518], the EC50 under setting [1] was 0.01 to 10 nM.

Turning to `COC(=O)[C@H](CNC(=O)C(=O)Nc1ccc(Oc2ccc(Cl)cc2Cl)nc1)NC(=O)c1ccc(Nc2nc(NC3(c4ccc(Cl)cc4)CC3)nc(OCC(F)(F)F)n2)cc1` [Compound 3697], the EC50 under setting [2] is 0.01 to 10 nM.

Take `Cc1ccc2sc(NC(=O)C(=O)NCC(C)(C)CNC(=O)c3ccc(Nc4nc(NC5(c6ccc(Cl)cc6)CC5)nc(OCC(F)(F)F)n4)cc3)nc2c1` [Compound 3818]: the EC50 under setting [2] lay in the range of 0.01 to 10 nM.

For the compound `COc1cc2sc(NC(=O)C(=O)NCC(C)(C)CNC(=O)c3ccc(Nc4nc(NC5(c6ccc(Cl)cc6)CC5)nc(OCC(F)(F)F)n4)cc3F)nc2cc1Cl` [Compound 3680], the EC50 under setting [2] lay within 0.01 to 10 nM.

`O=C(NCC[C@H](NC(=O)c1ccc(Nc2nc(NC3(c4ccc(Cl)cc4)CC3)nc(OCC(F)(F)F)n2)cc1)C(=O)O)C(=O)Nc1ccc(Oc2ccncc2)cc1` [Compound 3544]: the EC50 under setting [3] lay within 10 to 1000 nM.

For `O=C(NC/C(=N/C(=O)c1ccc(Nc2nc(NC3(c4ccc(Cl)cc4)CC3)nc(OCC(F)(F)F)n2)cc1)C(=O)O)C(=O)Nc1ccc(N2CCOCC2)cc1` [Compound 3148], the EC50 under setting [3] was in the range of 0.01 to 10 nM.

On to `CC(C)(CNC(=O)C(=O)Nc1ccc(Oc2ccccc2)cc1)CNC(=O)c1ccc(Nc2nc(NC3(c4ccc(Cl)cc4)CC3)nc(OCC(F)(F)F)n2)cc1` [Compound 3672], for which, under setting [2], the EC50 was in the range of 0.01 to 10 nM.

For `CCOc1ccc(NC(=O)C(=O)NCC[C@H](NC(=O)c2ccc(Nc3nc(NC4(c5ccc(Cl)cc5)CC4)nc(OCC(F)(F)F)n3)cc2)C(=O)O)cc1` [Compound 3548], the EC50 under setting [3] was 0.01 to 10 nM.

On to `COC(=O)[C@H](CNC(=O)C(=O)Nc1ccc(-n2nnnc2C)cc1)NC(=O)c1ccc(Nc2nc(NC3(c4ccc(Cl)cc4)CC3)nc(OCC(F)(F)F)n2)cc1` [Compound 3107], for which the EC50 is 0.92 nM under setting [4] and 0.01 to 10 nM under setting [3].

As for `CC(C)(CNC(=O)C(=O)Nc1nc2ccc(C(C)(O)O)cc2s1)CNC(=O)c1ccc(Nc2nc(NC3(c4ccc(Cl)cc4)CC3)nc(OCC(F)(F)F)n2)cc1` [Compound 3822], the half-maximal effective concentration (EC50) under setting [2] is 0.01 to 10 nM.

Regarding `CC(C)(CNC(=O)C(=O)Nc1ccc(CC(=O)O)cc1)CNC(=O)c1ccc(Nc2nc(NC3(c4ccc(Cl)cc4)CC3)nc(OCC(F)(F)F)n2)cc1` [Compound 1481], the EC50 under setting [1] is 0.01 to 10 nM.

Take `COC(=O)[C@H](CNC(=O)C(=O)NCc1c(F)cccc1F)NC(=O)c1ccc(Nc2nc(NC3(c4ccc(Cl)cc4)CC3)nc(OCC(F)(F)F)n2)cc1` [Compound 1135]: the EC50 by setting is: under setting [5], 1.92 nM; under setting [1], 0.01 to 10 nM.

Take `O=C(NCC[C@H](NC(=O)c1ccc(Nc2nc(NC3(c4ccc(Cl)cc4)CC3)nc(OCC(F)(F)F)n2)cc1)C(=O)O)C(=O)NCC1(CO)CC1` [Compound 1424]: the EC50 under setting [1] is 0.01 to 10 nM.

With `O=C(NC[C@H](NC(=O)c1ccc(Nc2nc(NC3(c4ccc(Cl)cc4)CC3)nc(OCC(F)(F)F)n2)cc1)C(=O)Cl)C(=O)Nc1cccc(Oc2cccnc2)c1` [Compound 3792], the EC50 under setting [2] lay in the range of 0.01 to 10 nM.

On to `CCOC(=O)[C@H](CCCNC(=O)C(=O)NC)NC(=O)c1ccc(Nc2nc(NC3(c4ccc(Cl)cc4)CC3)nc(OCC(F)(F)F)n2)cc1` [Compound 1030, (S)-ethyl 2-(4-(4-(1-(4-chlorophenyl)cyclopropylamino)-6-(2,2,2-trifluoroethoxy)-1,3,5-triazin-2-ylamino)benzamido)-5-(2-(methylamino)-2-oxoacetamido)pentanoate], for which the concentration for a half-maximal effect (EC50) under setting [1] was in the range of 0.01 to 10 nM.

Regarding `COC(=O)/C(CCNC(=O)C(=O)Nc1ccc(-n2nc(C)cc2C)cc1)=N\C(=O)c1ccc(Nc2nc(NC3(c4ccc(Cl)cc4)CC3)nc(OCC(F)(F)F)n2)cc1` [Compound 3137], the EC50 under setting [3] lay in the range of 0.01 to 10 nM.

Turning to `Cn1cnnc1-c1ccc(NC(=O)C(=O)NC[C@H](NC(=O)c2ccc(Nc3nc(NC4(c5ccc(Cl)cc5)CC4)nc(OCC(F)(F)F)n3)cc2)C(=O)O)cc1` [Compound 3283], the EC50 under setting [3] was 0.01 to 10 nM.

With `COC(=O)[C@H](CNC(=O)C(=O)N[C@H](C)C1CCCCC1)NC(=O)c1ccc(Nc2nc(NC3(c4ccc(Cl)cc4)CC3)nc(OCC(F)(F)F)n2)cc1` [Compound 1455], the EC50 under setting [1] was in the range of 0.01 to 10 nM.

For `CC(C)(CNC(=O)C(=O)Nc1ccc(-c2ccccc2)cc1)CNC(=O)c1ccc(Nc2nc(NC3(c4ccc(Cl)cc4)CC3)nc(OCC(F)(F)F)n2)cc1` [Compound 1590], the EC50 under setting [1] lay within 0.01 to 10 nM.

For the compound `COC(=O)[C@H](CNC(=O)C(=O)Nc1cccc(C(C)(C)C)c1)NC(=O)c1ccc(Nc2nc(NC3(c4ccc(Cl)cc4)CC3)nc(OCC(F)(F)F)n2)cc1` [Compound 3704], the EC50 under setting [2] lay within 0.01 to 10 nM.

`CN(C(=O)C(=O)NCC[C@H](NC(=O)c1ccc(Nc2nc(NC3(c4ccc(Cl)cc4)CC3)nc(OCC(F)(F)F)n2)cc1)C(=O)O)c1ccccc1` [Compound 1277]: the EC50 under setting [1] was 0.01 to 10 nM.

As for `Cc1cc(NC(=O)C(=O)NCC(C)(C)CNC(=O)c2ccc(Nc3nc(NC4(c5ccc(Cl)cc5)CC4)nc(OCC(F)(F)F)n3)cc2)no1` [Compound 1548], the concentration for a half-maximal effect (EC50) under setting [1] fell in the range of 0.01 to 10 nM.

Consider `Cc1ccc(NC(=O)C(=O)NCC(C)(C)CNC(=O)c2ccc(Nc3nc(NC4(c5ccc(Cl)cc5)CC4)nc(OCC(F)(F)F)n3)cc2)cc1C` [Compound 3799], for which the EC50 under setting [2] lay within 0.01 to 10 nM.

In the case of `O=C(NCC[C@H](NC(=O)c1ccc(Nc2nc(NC3(c4ccc(Cl)cc4)CC3)nc(OCC(F)(F)F)n2)cc1)C(=O)O)C(=O)Nc1cn[nH]c1` [Compound 1266], the EC50 under setting [1] was 0.01 to 10 nM.

As to `O=C(NCC[C@H](NC(=O)c1ccc(Nc2nc(NC3(c4ccc(Cl)cc4)CC3)nc(OCC(F)(F)F)n2)cc1)C(=O)O)C(=O)Nc1ccccn1` [Compound 1279], the EC50 is, setting by setting: under setting [5], 1.29 nM; under setting [1], 0.01 to 10 nM.

With `Cc1nnc(-c2ccc(NC(=O)C(=O)NCC(C)(C)CNC(=O)c3ccc(Nc4nc(NC5(c6ccc(Cl)cc6)CC5)nc(OCC(F)(F)F)n4)cc3)cc2)[nH]1` [Compound 3674], the EC50 is, setting by setting: (Hepatitis C virus, Huh-7, 48 h, HCV pseudoparticles, Huh7 cells, luciferase 2 days after infection, average of duplicates) 0.15 nM; under setting [2], 0.01 to 10 nM.

As to `COc1ccc(NC(=O)C(=O)NCC[C@H](NC(=O)c2ccc(Nc3nc(NC4(c5ccc(Cl)cc5)CC4)nc(OCC(F)(F)F)n3)cc2)C(=O)O)cc1` [Compound 1274], under setting [1], the 50% effective concentration (EC50) was in the range of 0.01 to 10 nM.

With `COC(=O)[C@H](CNC(=O)C(=O)Nc1ccnc(OC)c1)NC(=O)c1ccc(Nc2nc(NC3(c4ccc(Cl)cc4)CC3)nc(OCC(F)(F)F)n2)cc1` [Compound 1241], a half-maximal response under setting [5] (EC50) required 0.99 nM and the concentration giving a half-maximal response (EC50) under setting [1] is 0.01 to 10 nM.

For `NC(=O)C(=O)NCCNC(=O)c1ccc(Nc2nc(NC3(c4ccc(Cl)cc4)CC3)nc(OCC(F)(F)F)n2)cc1` [Compound 3380], the EC50 under setting [3] lay within 0.01 to 10 nM.

`CC(C)(CNC(=O)c1ccc(Nc2nc(NC3(c4ccc(Cl)cc4)CC3)nc(OCC(F)(F)F)n2)cc1)NC(=O)C(N)=O` [Compound 3420]: the EC50 under setting [3] lay in the range of 0.01 to 10 nM.

Consider `COc1ccc(NC(=O)C(=O)NC[C@H](NC(=O)c2ccc(Nc3nc(NC4(c5ccc(Cl)cc5)CC4)nc(OCC(F)(F)F)n3)cc2)C(=O)O)cc1` [Compound 1362], for which the EC50 is, setting by setting: under setting [5], 0.3 nM; under setting [1], 0.01 to 10 nM.

With `CC(C)(C)OC(=O)NC1(CNC(=O)C(=O)NCC[C@H](NC(=O)c2ccc(Nc3nc(NC4(c5ccc(Cl)cc5)CC4)nc(OCC(F)(F)F)n3)cc2)C(=O)O)CC1` [Compound 1425], the concentration for a half-maximal effect (EC50) under setting [1] fell in the range of 0.01 to 10 nM.

As for `COC(=O)[C@H](CCNC(=O)C(=O)Nc1ccc(C)cc1)NC(=O)c1ccc(Nc2nc(NC3(c4ccc(Cl)cc4)CC3)nc(OCC(F)(F)F)n2)cc1` [Compound 3217], the EC50 is 0.087 nM (HCV pseudoparticles (genotype 1a, H77C) in Huh7 cells, average of duplicate, luciferase 2 days after infection) and 0.01 to 10 nM (read-out: Activity (EC50 class), HCV pseudoparticles (genotype 1a, H77C) in Huh7 cells, EC50 expressed as class A/B).

Consider `COC(=O)/C(CCNC(=O)C(=O)Nc1cccc(S(=O)(=O)C2CCCCC2)c1)=N\C(=O)c1ccc(Nc2nc(NC3(c4ccc(Cl)cc4)CC3)nc(OCC(F)(F)F)n2)cc1` [Compound 3595], for which the EC50 under setting [3] lay within 0.01 to 10 nM.

As for `CC(C)(CNC(=O)C(=O)Nc1nc2c(Cl)ccc(Cl)c2s1)CNC(=O)c1ccc(Nc2nc(NC3(c4ccc(Cl)cc4)CC3)nc(OCC(F)(F)F)n2)cc1` [Compound 3837], under setting [2], the EC50 was in the range of 0.01 to 10 nM.

As to `O=C(N[C@H](CCNC(=O)c1ccc(Nc2nc(NC3(c4ccc(Cl)cc4)CC3)nc(OCC(F)(F)F)n2)cc1)C(=O)O)C(=O)N1CCc2ccccc2C1` [Compound 3495], the EC50 under setting [3] was in the range of 0.01 to 10 nM.

In the case of `CC(C)c1ccc(COc2nc(Nc3ccc(C(=O)NCC(C)(C)CNC(=O)C(=O)Nc4ccccc4-c4ccccc4)c(F)c3)nc(NC3(c4ccc(Cl)cc4)CC3)n2)cc1` [Compound 3830, N^1-([1, 1′-biphenyl]-2-yl)-N^2-(3-(4-((4-((1-(4-chlorophenyl)cyclopropyl)amino)-6-((4-isopropylbenzyl)oxy)-1,3,5-triazin-2-yl)amino)-2-fluorobenzamido)-2,2-dimethylpropyl)oxalamide], the half-maximal effective concentration (EC50) under setting [2] fell in the range of 0.01 to 10 nM.

For the compound `O=C(NC[C@H](NC(=O)c1ccc(Nc2nc(NC3(c4ccc(Cl)cc4)CC3)nc(OCC(F)(F)F)n2)cc1)C(=O)O)C(=O)Nc1cccc(-c2ccncc2)c1` [Compound 3768], the EC50 under setting [2] is 0.01 to 10 nM.

As to `CC(C)(CNC(=O)C(=O)Nc1ccccc1-c1ccccc1)CNC(=O)c1ccc(Nc2nc(NC3(c4ccc(Cl)cc4)CC3)nc(OCC(F)(F)F)n2)cc1F` [Compound 3556], the EC50 under setting [3] is 0.01 to 10 nM.

Turning to `O=C(NCCC(NC(=O)c1ccc(Nc2nc(NC3(c4ccc(Cl)cc4)CC3)nc(OCC(F)(F)F)n2)cc1)C(=O)O)C(=O)Nc1ccc(CN2CCCCC2)cc1` (stereo not drawn) [Compound 3534], a half-maximal response under setting [4] (EC50) required 7.54 nM and the EC50 under setting [3] was in the range of 0.01 to 10 nM.
